Reference: PMC9942557, “Bolaamphiphile Analogues of 12-bis-THA Cl2 Are Potent Antimicrobial Therapeutics with Distinct Mechanisms of Action against Bacterial, Mycobacterial, and Fungal Pathogens” (mSphere, 2022)
Where two headings read alike, the source gives them in different places.

How the values were obtained:
[1] = system: Escherichia coli ATCC 25922; experiment: Intrahemocoelic G. mellonella infection model; format: in vivo, Galleria mellonella; settings: single 10-mg/kg dose 1 h after infection
Method: The antimicrobial activities of DQC, CM2, and its analogues Quino-bola, Penta-bola, Hepta-bola, and Octa-bola against Escherichia coli ATCC 25922 were tested in Galleria mellonella larvae. All assays were performed on two separate occasions using a group size of 10 larvae; the larvae were kept in separate petri dishes and in a static incubator at 37°C during the period of the experiment. A suspension of E. coli ATCC 25922 was prepared by transferring two colonies of E. coli ATCC 25922 from a fresh agar plate into PBS and adjusting the absorbance to a McFarland 0.5 standard. The number of CFU per milliliter of this suspension was determined and corresponded to 1 × 10^8 CFU/mL. Larvae were injected beneath the tegument with 10 μL of a 1 × 10^7-CFU/mL bacteria suspension, corresponding to 1 × 10^5 CFU per larva. A 50-μL Hamilton syringe with a G27 needle was used for the injection. […] Ten microliters of stock solution was injected into each larva 1 h after infection (10 mg/kg). Levofloxacin (LVX; 50 μg/mL = 2 mg/kg) and PBS were used as positive and negative controls, respectively. A noninfected PBS injection was included to control for the effects of injection. Survival was monitored over a period of 70 to 72 h. Changes in G. mellonella survival were analyzed by the log rank (Mantel-Cox) method and plotted as Kaplan-Meier survival curves using GraphPad Prism version 7.

C. albicans 3179 = experiment: Broth microdilution MIC; format: cell-based, Candida albicans; settings: C. albicans 3179
[2] = system: VS Enterococcus faecalis NCTC 775; experiment: Broth microdilution MIC; format: cell-based
[3] = system: Acinetobacter baumannii ATCC 17978; experiment: Broth microdilution MIC; format: cell-based
HeLa = experiment: In vitro toxicity for cell line; format: cell-based, human; settings: for EC50: Homo sapiens, read-out: Toxicity (EC50)
Text: (§1) TABLE 2 Toxicity of bolaamphiphiles for two cell lines^a | column: Toxicity (EC50 [μg/ml]) of: / 12-bis-THA Cl2; Toxicity (EC50 [μg/ml]) of: / Dequalinium; Toxicity (EC50 [μg/ml]) of: / Quino-bola; Toxicity (EC50 [μg/ml]) of: / Penta-bola; Toxicity (EC50 [μg/ml]) of: / Hepta-bola; Toxicity (EC50 [μg/ml]) of: / Octa-bola; Toxicity (EC50 [μg/ml]) of: / Octa-C10; Toxicity (EC50 [μg/ml]) of: / Octa-C8; Toxicity (EC50 [μg/ml]) of: / Octa-C6

HEK293 = experiment: In vitro toxicity for cell line; format: cell-based, human; settings: for EC50: Homo sapiens
Text: as §1

P. aeruginosa PAO1 = experiment: Checkerboard synergy assay; format: cell-based, Pseudomonas aeruginosa; settings: for MIC: Pseudomonas aeruginosa, read-out: MIC Alone Bolalipid
Klebsiella pneumoniae M6 = experiment: Broth microdilution MIC; format: cell-based
[4] = system: EMR Staphylococcus aureus 15 NCTC 13616; experiment: Broth microdilution MIC; format: cell-based; settings: EMR Staphylococcus aureus 15 NCTC 13616
Dynamic light scattering = format: physicochemical; settings: 0.36 mM in water
Method: Stock solutions of bolalipids were prepared by dispersing the powder in ultrapure water, then stirring vigorously by vortexing, and sonicating in a 40°C bath sonicator for 20 min. The concentration of each stock solution corresponds to the highest solubility achieved in water for each bolalipid, using the method described above. DLS experiments were performed on a Malvern Zetasizer Nano (Malvern Instruments, Worcestershire, UK) in back-scattering mode at 20°C. There were three independent measurements of each sample and 12 runs for each measurement, with 10 s taken for each run. The attenuator index and measurement position were automatically adjusted. Fifty microliters of each sample was transferred into polystyrene semi-microcuvettes for determination of UV and visible wavelengths (Sarstedt).

[5] = system: VR Enterococcus faecium NCTC 12204; experiment: Broth microdilution MIC; format: cell-based; settings: VR Enterococcus faecium NCTC 12204
C. glabrata 8018 = experiment: Broth microdilution MIC; format: cell-based; settings: C. glabrata 8018
C. tropicalis 8760 = experiment: Broth microdilution MIC; format: cell-based; settings: C. tropicalis 8760
C. auris temp probe = experiment: Broth microdilution MIC; format: cell-based, Candida auris; settings: C. auris temp probe
[6] = system: Acinetobacter baumannii AYE; experiment: Broth microdilution MIC; format: cell-based; settings: Acinetobacter baumannii AYE
[7] = system: Escherichia coli NCTC 12923; experiment: Broth microdilution MIC; format: cell-based
M. tuberculosis Bleupan = experiment: microbe, parasite or virus in culture; format: cell-based, Mycobacterium tuberculosis
C. albicans 3281 = experiment: Broth microdilution MIC; format: cell-based, Candida albicans; settings: C. albicans 3281
M. smegmatis mc^2 155 = experiment: Broth microdilution MIC (Middlebrook 7H9); format: cell-based, Mycobacterium smegmatis
[8] = system: EMR Staphylococcus aureus 16 NCTC 13277; experiment: Broth microdilution MIC; format: cell-based; settings: EMR Staphylococcus aureus 16 NCTC 13277
C. parapsilosis 3209 = experiment: Broth microdilution MIC; format: cell-based
C. parapsilosis = experiment: Broth microdilution MIC; format: cell-based
[9] = system: Pseudomonas aeruginosa PAO1; experiment: Broth microdilution MIC; format: cell-based
C. krusei 3876 = experiment: Broth microdilution MIC; format: cell-based
[10] = system: Klebsiella pneumoniae NCTC 13368; experiment: Broth microdilution MIC; format: cell-based
[11] = system: Gram-negative bacteria (avg); experiment: Selectivity index (toxicity/potency); format: cell-based; settings: ratio of average toxicity (HEK293 and HeLa) to average potency
Text: as §1, with “3 Selectivity indices” for “2 Toxicity”, “bolaamphiphiles” for “bolaamphiphiles for two cell lines^a”, “Selectivity of^a:” for “Toxicity (EC50 [μg/ml]) of:”

Fungi (avg) = experiment: Selectivity index (toxicity/potency); format: cell-based, Candida spp.; settings: ratio of average toxicity (HEK293 and HeLa) to average potency
Text: as §1, with “3 Selectivity indices” for “2 Toxicity”, “bolaamphiphiles” for “bolaamphiphiles for two cell lines^a”, “Selectivity of^a:” for “Toxicity (EC50 [μg/ml]) of:”

[12] = system: Gram-positive bacteria (avg); experiment: Selectivity index (toxicity/potency); format: cell-based; settings: ratio of average toxicity (HEK293 and HeLa) to average potency
[13] = average ± standard error from 3 independent repeats
[14] = Candida albicans, read-out: MIC
[15] = Nakaseomyces glabratus, read-out: MIC
[16] = Candida tropicalis, read-out: MIC
[17] = Candidozyma auris, read-out: MIC
[18] = Mycobacterium tuberculosis, read-out: MIC
[19] = Mycolicibacterium smegmatis, MC^2155, read-out: MIC
[20] = Lodderomyces parapsilosis, read-out: MIC
[21] = Pichia kudriavzevii, read-out: MIC

For `Nc1c2c([n+](CCCCCCCCCCCC[n+]3c4c(c(N)c5ccccc53)CCC4)c3ccccc13)CCC2` [Penta-bola], the “protection (survival over 72 h)” value [1] was “neither Quino-bola nor Penta-bola offered significant protection”, the MIC (C. albicans 3179) was 0.25 mg/L and the MIC [2] was 4 mg/L. The MIC [3] was 16 mg/L, the “Toxicity (EC50)” value (HeLa; [13]) was 9.5 ± 1.7 mg/L and the “Toxicity (EC50)” value (HEK293; HEK293, average ± standard error from 3 independent repeats) was 7.9 ± 1.2 mg/L. For the same compound, the “MIC alone Bolalipid” value (P. aeruginosa PAO1) was 32 mg/L, the MIC (Klebsiella pneumoniae M6) was 32 mg/L and the MIC [4] was 0.5 mg/L. For the same compound, the “nanoparticle formation (DLS)” value (Dynamic light scattering) was “to some extent”, the MIC [5] was 1 mg/L and the MIC (C. glabrata 8018) was 0.25 mg/L. The MIC (C. tropicalis 8760) was 0.25 mg/L, the MIC (C. auris temp probe) was 2 mg/L and the MIC [6] was 32 mg/L. It also gave an MIC [7] of 16 mg/L, an MIC (M. tuberculosis Bleupan) of 0.19 mg/L and an MIC (C. albicans 3281) of 0.25 mg/L. The MIC (M. smegmatis mc^2 155) was 0.10 mg/L, the MIC [8] was 0.5 mg/L and the MIC (C. parapsilosis 3209) was 1 mg/L. The MIC (C. parapsilosis) was 1 mg/L, the MIC [9] was 32 mg/L and the MIC (C. krusei 3876) was 0.5 mg/L. The MIC [10] was 32 mg/L.

For `Cc1cc(N)c2ccccc2[n+]1CCCCCCCCCC[n+]1c(C)cc(N)c2ccccc21` [Dequalinium, dequalinium chloride, reference compound], the “protection (survival over 72 h)” value [1] was “protective”, the MIC (C. albicans 3179; [14]) was 0.5 mg/L and the MIC ([2]; NCTC775, read-out: MIC) was 32 mg/L. It also gave a Selectivity index [11] of 0.69, a Selectivity index (Fungi (avg)) of 26.8 and an MIC ([3]; ATCC17978, read-out: MIC) of 32 mg/L. For the same compound, the EC50 (HeLa; [13]) was 34.7 ± 13.9 mg/L, the EC50 (HEK293; HEK293, average ± standard error from 3 independent repeats, read-out: Toxicity (EC50)) was 9.9 ± 3.3 mg/L and the MIC (P. aeruginosa PAO1) was greater than 32 mg/L. The MIC (Klebsiella pneumoniae M6; read-out: MIC) was greater than 32 mg/L, the MIC ([4]; NCTC13616, read-out: MIC) was 8 mg/L and the “nanoparticle formation (DLS)” value (Dynamic light scattering) was “readily form nanoparticles”. The MIC ([5]; NCTC12204, read-out: MIC) was 8 mg/L, the MIC (C. glabrata 8018; [15]) was 0.5 mg/L and the MIC (C. tropicalis 8760; [16]) was 0.5 mg/L. The Selectivity index [12] was 2.65, the MIC (C. auris temp probe; [17]) was 4 mg/L and the MIC ([6]; read-out: MIC) was 32 mg/L. The MIC ([7]; NCTC12923, read-out: MIC) was 32 mg/L, the MIC (M. tuberculosis Bleupan; [18]) was 3.51 mg/L and the MIC (C. albicans 3281; [14]) was 0.5 mg/L. For the same compound, the MIC (M. smegmatis mc^2 155; [19]) was 0.68 mg/L, the MIC ([8]; NCTC13277, read-out: MIC) was 4 mg/L and the MIC (C. parapsilosis 3209; [20]) was 4 mg/L. The MIC (C. parapsilosis; [20]) was 8 mg/L, the MIC ([9]; read-out: MIC) was greater than 32 mg/L and the MIC (C. krusei 3876; [21]) was 1 mg/L. It also gave an MIC ([10]; NCTC13368, read-out: MIC) greater than 32 mg/L.

With `Nc1c2c([n+](CCCCCCCCCCCC[n+]3c4c(c(N)c5ccccc53)CCCCCC4)c3ccccc13)CCCCCC2` [Octa-bola] the “protection (survival over 72 h)” value [1] was “significantly protective”, the MIC (C. albicans 3179; [14]) was 0.5 mg/L and the MIC ([2]; NCTC775, read-out: MIC) was 0.5 mg/L. It also gave a Selectivity index [11] of 0.53, a Selectivity index (Fungi (avg)) of 8.30 and an MIC ([3]; ATCC17978, read-out: MIC) of 8 mg/L. It also gave an EC50 (HeLa) of 4.5 ± 0.7 mg/L, an EC50 (HEK293; HEK293, read-out: Toxicity (EC50)) of 3.8 ± 0.3 mg/L and an MIC (P. aeruginosa PAO1) of 32 mg/L. For the same compound, the MIC (Klebsiella pneumoniae M6; read-out: MIC) was 16 mg/L, the MIC ([4]; NCTC13616, read-out: MIC) was 0.125 mg/L and the “nanoparticle formation (DLS)” value (Dynamic light scattering) was “readily form nanoparticles”. For the same compound, the MIC ([5]; NCTC12204, read-out: MIC) was 0.5 mg/L, the MIC (C. glabrata 8018; [15]) was 0.5 mg/L and the MIC (C. tropicalis 8760; [16]) was 0.25 mg/L. For the same compound, the Selectivity index [12] was 17.4, the MIC (C. auris temp probe; [17]) was 1 mg/L and the MIC ([6]; read-out: MIC) was 8 mg/L. The MIC ([7]; NCTC12923, read-out: MIC) was 2 mg/L, the MIC (M. tuberculosis Bleupan; [18]) was 0.24 mg/L and the MIC (C. albicans 3281; [14]) was 0.5 mg/L. It also gave an MIC (M. smegmatis mc^2 155; [19]) of 0.55 mg/L, an MIC ([8]; NCTC13277, read-out: MIC) of 0.125 mg/L and an MIC (C. parapsilosis 3209; [20]) of 0.5 mg/L. The MIC (C. parapsilosis; [20]) was 1 mg/L, the MIC ([9]; read-out: MIC) was 32 mg/L and the MIC (C. krusei 3876; [21]) was 0.5 mg/L. For the same compound, the MIC ([10]; NCTC13368, read-out: MIC) was 32 mg/L.
